For the experiment, the system named is CEM cells HIV-1 protection, formazan growth assay. Briefly: NCI AIDS Antiviral Assay. Conditions: for pIC50: measured here: growth of uninfected CEM cells. The gist of the method: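 Human CEM cells, uninfected and HIV-1-infected, received five drug concentrations, and growth was read by soluble formazan assay. Compounds giving at least 50% protection were retested; reproducible 100% protection defined confirmed active.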

pEC50, pIC50: −log10 of the molar value. Calls of active or inactive are those of the source.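 How the source made its calls: active means compounds giving half or more protection of infected cells from virus-caused growth loss, again on retest; inactive means the rest.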 A value given as a limit tells only on which side of the number the result lay.

Usually pEC50 stands for the negative decadic logarithm of the EC50, by convention in mol/L. The pIC50 is the negative decadic logarithm of the IC50, by convention in mol/L. A high value points to a low IC50. As to `O=c1[nH]cc(/C=N\OCCP(=O)(O)O)c(=O)[nH]1`, the pEC50 was < 3.70 and the pIC50 is < 3.70.

On to `[O-][n+]1c(CCl)nc2ccccc2c1-c1ccccc1F`, for which the pEC50 was < 4.46 and the pIC50 is < 4.46.

Consider `O=C(Nc1nc2ccsc2s1)c1ccccc1`, for which the pEC50 was < 3.30 and the pIC50 was < 3.30.

On to `O=C1C(O)=C(O)C(=O)C(O)=C1O`, for which the pEC50 is < 3.70 and the pIC50 is < 3.70.

For `O=C1C(=O)c2ccccc2C(O)=C1Nc1ccc(Cl)cc1`, the outcome was inactive.

With `CCOC(=O)/C(C#N)=C/c1cccc(F)c1`, the pEC50 is < 3.79 and the pIC50 is < 3.79.

For the molecule `CNC1C(O)CC(OC2C/C=C(\C)C/C(C)=C/C=C/CCC(C)CNC(=O)/C=C/C=C/C2C)OC1C` (configuration not stated), the pEC50 is < 4.43 and the pIC50 is 5.71.

As for `CCCCCCCCCCCCSC(=S)c1c(C)[nH]n(-c2ccccc2)c1=O`, the pEC50 is < 4.37 and the pIC50 is 4.80.

With `CCOC(=O)CCC(NC(=O)c1ccc(Nc2nc3ccccc3nc2-c2cccs2)cc1)C(=O)OCC` (configuration not stated), the pEC50 was < 3.70 and the negative-log IC50 (pIC50) is 4.87.

With `Cc1ccc(/C(O)=C/c2nc3ccccc3oc2=O)cc1`, the pEC50 was < 3.70 and the pIC50 was 4.26.

On to `O=C(NCCc1ccccc1)[C@H]1CCCC[C@@H]1CCO`, for which the pEC50 was < 3.70 and the pIC50 is < 3.70.

Take `CSC(=NC(=O)c1ccccc1)SCCSC(=NC(=O)c1ccccc1)SC`: the pEC50 is < 5.63 and the pIC50 was < 5.63.

Take `O=NNc1ccc(S(=O)(=O)c2ccc(NN=O)cc2)cc1`: the result was inactive.

As to `CCOC(=O)Cc1nc2sc(S(N)(=O)=O)nn2c1Br`, the pEC50 is < 3.70 and the pIC50 is 5.00.

In the case of `CN(C)C=C1C(=O)c2ccccc2C1=O`, the pEC50 is < 4.45 and the pIC50 is < 4.45.

`COc1ccc(S(=O)(=O)N[C@@H](C(=O)O)c2ccccc2)cc1`: the result was inactive.

For `Cc1nnc(N=Nc2c(O)[nH]c3c(Cl)cc(Cl)cc23)n1N`, the pEC50 was < 4.78 and the pIC50 was < 4.78.

With `Cc1cc(N(CCC#N)S(=O)(=O)c2ccccc2)ccc1C=Nc1cccc(C(=O)O)c1`, the pEC50 is < 3.82 and the negative-log IC50 (pIC50) is < 3.82.

`[N-]=[N+]=NC1C(O)C(O)C(O)C(O)C1O` (configuration not stated): the pEC50 was < 3.22 and the negative logarithm of the IC50 (pIC50) is < 3.22.

In the case of `O=C1C2=C(c3ccccc31)C(c1ccccc1Cl)N1C(=O)CCSC1=N2` (configuration not stated), the pEC50 is < 4.58 and the pIC50 was < 4.58.

As for `CCCC(=O)c1ccc2c(ccc(=O)n2C)c1`, the pEC50 was < 3.95 and the pIC50 is 3.99.

Turning to `NC(=O)c1ncn(C2C=CC(CP(=O)(O)O)C2)c1N` (configuration not stated), the pEC50 is < 3.70 and the pIC50 was < 3.70.

For the molecule `COC(=O)c1c(C)c(=O)n(C)c(=O)n1C`, the result was inactive.

As to `O=C(NCc1cc(CNC(=O)c2cccc(O)c2O)cc(CNC(=O)c2cccc(O)c2O)c1)c1cccc(O)c1O`, the pEC50 is < 3.70 and the pIC50 is 5.71.

Regarding `CN(C)c1nc(N(C)C)n2nc(-c3ccccc3[N+](=O)[O-])nc2n1`, the pEC50 was < 4.66 and the pIC50 is 8.15.

For `O=C(c1cc(Cl)c(O)c(C(=O)O)c1)c1cc(Cl)c(O)c(C(=O)O)c1`, the pEC50 is < 4.21 and the negative logarithm of the IC50 (pIC50) is 4.25.

Consider `Cc1ccc(Oc2ccc(C)cc2[N+](=O)[O-])cc1`, for which the outcome was inactive.

As for `Cc1nc2ccccc2c(=O)n1N1C2CCCC21` (configuration not stated), the pEC50 is < 3.70 and the negative logarithm of the IC50 (pIC50) was < 3.70.

`O=C1OC(=O)c2c1c(-c1ccccc1)nc1ccccc21`: the pEC50 is < 3.97 and the negative-log IC50 (pIC50) is < 3.97.

Consider `COC(=O)C1C(C(=O)OC)C2(OC)c3ccccc3-c3ccccc3C12` (configuration not stated), for which the pEC50 was < 3.70 and the pIC50 was 4.67.

In the case of `CC(C)=NOC(=O)OC[C@H]1O[C@@H](n2cnc3c(N)ncnc32)C(O)C1O` (some centres not stated), the pEC50 is < 3.70 and the pIC50 was < 3.70.

The values above are taken from PubChem BioAssay AID179 (DTP/NCI, 2004).
